These are literature values, as cited in patent US20260256672A1, “COMPOSITION COMPRISING SKIN CARE ACTIVE INGREDIENT OR CELLULOSE COMPOUND” (L'OREAL, priority 2022, published 2026).

Each structure is given as a SMILES string.

For this series the following is noted: base-ten logarithm of apparent octan-1-ol/water partition coefficient.
As for `O=C1O[C@H]([C@@H](O)CO)C(O)=C1O[C@H]1O[C@H](CO)[C@@H](O)[C@H](O)[C@H]1O` [Ascorbyl Glucoside], the log partition coefficient (Log P) was −3.4. In the case of `CC(O)C[C@H]1OC[C@@H](O)[C@H](O)[C@H]1O` (stereo partly drawn) [Hydroxypropyl Tetrahydropyrantriol, C-beta-D-xylopyranoside-2-hydroxpropane], the “Log P” value is −1.5. In the case of `NC(=O)c1cccnc1` [Niacinamide], the “Log P” value was −0.37. Regarding `NC[C@H]1CC[C@H](C(=O)O)CC1` [Tranexamic Acid], the “Log P” value is given as −1.6.
